Legend:
Assay type in all cases: in vivo, Wistar rat
[1] = test system: full-thickness skin defect; assay: Wound healing score, circular full-thickness skin defect on the dorsal part
Procedure: Formation of wounds: hair on the dorsal part of a 12-week-old Wistar rat was shaven with hair clippers, and a circular full-thickness skin defect with a diameter of 8 mm was produced on each of the left and right sides of the head and the left and right sides of the tail. The full-thickness skin defect was formed at four locations per body.
Administration of milk: 20 μL of milk was subcutaneously injected at each of four locations, namely upper, lower, left and right, in a place 4 mm away from the peripheral edge of the wound. As the milk, the commercially available bovine milk sterilized by heating (at 130 degrees for 2 seconds and 65 degrees for 30 minutes) as described in Example 1 was used.
Administration of fatty acid: As a fatty acid contained in the milk, sterile purified water (administration liquid) containing palmitic acid, stearic acid, myristic acid, linolenic acid, α-linoleic acid and oleic acid, respectively was administered. Here, the water was heated and administered for the saturated fatty acids, and the water was administered at room temperature for the unsaturated fatty acids. 20 μL of the administration liquid (containing 1 mg of the fatty acid) was subcutaneously administered at each of four locations, namely upper, lower, left and right, in a place 4 mm away from the peripheral edge of the wound.
Score 4: The reduction ratio of the area of the wound site is 70% or more.
Score 3: The reduction ratio of the area of the wound site is 50% or more and less than 70%.
Score 2: The reduction ratio of the area of the wound site is 20% or more and less than 50%.
Score 1: The reduction ratio of the area of the wound site is less than 20%.
The result was given as a ratio obtained by dividing the above score by the score for physiological saline.
Two tubes of 8 mL of commercially available milk sterilized at a low temperature (65 degrees for 30 minutes) were centrifuged by a centrifugal separator (2600 g×6 minutes), 2 mL of one fourth of the supernatant exclusive of a whip portion was collected from each tube, the two collected liquids were combined to obtain 4 mL of a liquid, and 4 mL of the resulting liquid was stirred, and used for experiments (hereinafter, the obtained sample is referred to as a “centrifuged sample”). The obtained centrifuged sample was administered to the wound site at a dosage of 20 μL per location in the same manner as described above. The results are shown in “Centrifuged Sample” in FIG. 6A.
Next, a wound healing-promoting effect of lactoferrin was examined. As lactoferrin, Nice rim essence 62971 (trade name) purchased from Lion Corporation was used and administered at one location in an amount of 20 μg or 60 μg in the same manner as described above. Specifically, the lactoferrin was ground, and then thoroughly dissolved in purified water. The lactoferrin concentration was adjusted so that an injection amount of 20 μL included the above administration amount. The result was given as a value obtained by dividing each of scores after seven days and after ten days by the score for the physiological saline administration group.

[2] = test system: CD68-positive cells; assay: Immunohistological staining of rat dorsal skin after injection of fatty acids (CD68); conditions: 1 mg fatty acid in 20 μL per location; for number of CD68-positive cells (overall statement): a weak effect was observed overall
Procedure: (§1) Next, representative fatty acids contained in milk were administered to a 12-week-old Wistar rat at a plurality of locations on the dorsal skin as in Example 1(2) above, and a change in tissues by the administration was observed after the tissues were subjected to immunohistological staining. More specifically, physiological saline was administered in an amount of 20 μL per location, an administration liquid containing 1 mg of a fatty acid was administered in an amount of 20 μL per location, and a change in CD68-positive macrophage stained images and PPAR-γ-positive cell images by the administration was observed. Samples of the Wistar rat were obtained by sampling administration sites (four weeks after administration and eight weeks after administration). FIGS. 10A to 10G show the results. […] At saturated fatty acid injection sites, infiltration of a large number of CD68-positive cells was observed, and fibrillization of normal tissues was observed. Therefore, in FIGS. 10B to 10D, a change in fat tissues was examined at a location which was closest to the administration site and where normal tissues were maintained (non-fibrillization location).

[3] = test system: PPAR-γ-positive cells; assay: Immunohistological staining of rat dorsal skin after injection of fatty acids (PPAR-γ); conditions: 1 mg fatty acid in 20 μL per location; for number of PPAR-γ-positive cells at the administration site: four weeks after administration, vs physiological saline, FIGS. 10B-10G; for increase in the number of PPAR-γ-positive cells at the administration site: eight weeks after administration
Procedure: as §1

[4] = test system: PPAR-γ-positive cells; assay: Immunohistological staining of rat dorsal skin after forced oral lactoferrin (PPAR-γ); conditions: 300 mg oral once a day, eight weeks after administration, n=3; FIG. 9
Procedure: (§2) As a comparative test, lactoferrin was administered instead of milk, and whether the number of CD68-positive cells and the number of PPAR-γ-positive cells increased or not was examined. As lactoferrin, three tablets of Nice rim essence 62971 (manufactured by Lion Corporation) corresponding to 300 mg of active lactoferrin (amount ingested per day by a human) were orally administered to a 12-week-old Wistar rat (n=3). Administration was performed once a day with the tablets injected (forcedly ingested) into the stomach using a feeding needle. Eight weeks after administration, a paraffin-embedded section of the dorsal skin was prepared by a conventional method, and subjected to immunohistological staining.

[5] = test system: CD68-positive cells; assay: Immunohistological staining of rat dorsal skin after forced oral lactoferrin (CD68); conditions: 300 mg oral once a day, eight weeks after administration, n=3; FIG. 9
Procedure: as §2

[6] = 20 μL administration liquid containing 1 mg of the fatty acid at each of four locations, FIG. 6C
[7] = eight weeks after administration
[8] = four weeks after administration, vs physiological saline

Molecule	wound healing-promoting effect (score divided by the score for physiological saline) [1, 6]	number of CD68-positive cells (overall statement) [2]	number of CD68-positive cells at the administration site [2, 7]	number of CD68-positive cells at the administration site [2, 8]	number of PPAR-γ-positive cells at the administration site [3]	increase in the number of PPAR-γ-positive cells at the administration site [3]	wound healing-promoting effect (score divided by the score for physiological saline) ([1]; 20 μg or 60 μg per location in 20 μL, after seven days and after ten days, FIG. 6B)	number of PPAR-γ-positive cells in dorsal skin [4]	number of CD68-positive cells in dorsal skin [5]
CCCCC/C=C\C/C=C\CCCCCCCC(=O)O [linoleic acid]	weak wound healing-promoting effect	did not greatly increase	increased	did not remarkably increase	did not remarkably increase				
CCCCCCCCCCCCCC(=O)O [myristic acid]	high promoting effect		maintained	increased	increased	maintained			
CCCCCCCC/C=C\CCCCCCCC(=O)O [oleic acid]	weak wound healing-promoting effect	did not greatly increase	increased	did not remarkably increase	did not remarkably increase				
CCCCCCCCCCCCCCCCCC(=O)O [stearic acid]	high promoting effect		maintained	increased	increased	maintained			
CC/C=C\C/C=C\C/C=C\CCCCCCCC(=O)O [α-linolenic acid]	weak wound healing-promoting effect	did not greatly increase	increased	did not remarkably increase	did not remarkably increase				
lactoferrin							did not exhibit a significant promoting effect	did not increase	did not increase
